Test results: patent publication US20250134889A1, “TARGETING IRE1 KINASE AND FMRP FOR PROPHYLAXIS, MANAGEMENT AND TREATMENT OF ATHEROSCLEROSIS” (CEDARS-SINAI MEDICAL CENTER, priority 2022, published 2025)

Key:
atherosclerotic plaque = details: mice; cited from earlier work
[1] = test system: mouse and human macrophages; details: cited from earlier work
[2] = test system: RAW 264.7 mouse macrophages; experiment: ER stressor treatment of RAW 264.7 macrophages (western blot, qRT-PCR); assay type: cell-based; details: oxLDL 50 μg/ml or TG 300 nM, 6 hours
Experimental: FIGS. 1A-1K depict FMRP is a new inositol-requiring enzyme-1 (IRE1) kinase substrate. A representative blot is shown from at least n=3 independent experiments. Data are mean±SEM. Unpaired 1-test with Welch's correction or paired 1-test. * P≤0.05, ** P≤0.01, *** P≤0.001. • 1A. STING analysis of published IRE1 interactome proteins in relation to FMRP (Acosta-Alvear et al., 2018). • 1B. HEK293T cells were co-transfected with IRE1 and FMRP plasmids and stimulated with TG (600 nM) or TM (1 mg/ml) for 2 hours. Protein lysates were immunoprecipitated (IP) with anti-IRE1 or IgG (control) antibodies and analyzed by Western blotting using specific antibodies for FMRP and IRE1 (n=3). • 1C. RAW 264.7 mouse macrophages were treated with either oxLDL (50 μg/ml) or TG (300 nM) for 6 hours. Protein lysates were treated with λ Phosphatase (PPase) for 30 minutes and analyzed by western blotting using specific antibodies for pFMRP, FMRP, pIRE1, IRE1 and β-Actin. pFMRP/FMRP fold induction is depicted above the blots (n=6). • 1D. Apoe^−/− mice were fed with chow diet (CD) or western diet (WD) for 16 weeks followed by peritoneal macrophage (PM) isolation. Protein lysates were analyzed by western blotting using specific antibodies for pFMRP, FMRP, pIRE1, IRE1 and β-Actin. pFMRP/FMRP-fold induction is depicted above the blots (n=5). • 1E. Control- or IRE1-siRNA transfected HEK293T cells were stimulated by either PA (500 μM) or TG (600 nM) for 4 hours. Protein lysates were analyzed by western blotting using specific antibodies for pFMRP, FMRP, pIRE1, IRE1 and β-Actin. pFMRP/FMRP fold induction is depicted above the blots (n=4). • 1F. Protein lysates of thioglycolate-elicited PM from IRE1α^−/− and IRE1α^−/− mice (after 16 weeks on WD) were analyzed by western blotting using specific antibodies for pFMRP, FMRP, pIRE1, IRE1 and β-Actin. pFMRP/FMRP fold induction is depicted above the blots (n=4). • 1G. […] Protein lysates were analyzed by western blotting using specific antibodies for pFMRP, FMRP, pIRE1, IRE1 and β-Actin. pFMRP/FMRP fold induction is depicted above the blots (n=4). • 1H. […] Protein lysates of thioglycolate-elicited PM were analyzed by western blotting using antibodies for pFMRP, FMRP, pIRE1, IRE1 and β-Actin. pFMRP/FMRP fold induction is depicted above the blots (n=4). • 1I. […] The IP protein were analyzed by western blotting using specific antibodies for thiophosphate esters (ThioP), IRE1 and FMRP (n=3). • 1J. Purified FMRP and IRE1 kinase (activated) proteins were subjected to kinase assay and analyzed by western blotting using specific antibodies for ThioP, IRE1 and FMRP (n=3) and with LC-MS/MS. […] Protein lysates were analyzed by western blotting using specific antibodies for FMRP, pFMRP, pIRE1 and β-Actin. pFMRP/FMRP fold induction is depicted above the blots (n=3). […]

HEK293T cells = experiment: ER stress-induced phosphorylation in control- or IRE1-siRNA transfected HEK293T cells (western blot); assay type: cell-based, human; details: PA 500 μM or TG 600 nM, 4 hours, control cells
Experimental: FIGS. 1A-1K depict FMRP is a new inositol-requiring enzyme-1 (IRE1) kinase substrate. A representative blot is shown from at least n=3 independent experiments. Data are mean±SEM. Unpaired 1-test with Welch's correction or paired 1-test. * P≤0.05, ** P≤0.01, *** P≤0.001. • 1A. STING analysis of published IRE1 interactome proteins in relation to FMRP (Acosta-Alvear et al., 2018). • 1B. HEK293T cells were co-transfected with IRE1 and FMRP plasmids and stimulated with TG (600 nM) or TM (1 mg/ml) for 2 hours. Protein lysates were immunoprecipitated (IP) with anti-IRE1 or IgG (control) antibodies and analyzed by Western blotting using specific antibodies for FMRP and IRE1 (n=3). • 1C. RAW 264.7 mouse macrophages were treated with either oxLDL (50 μg/ml) or TG (300 nM) for 6 hours. Protein lysates were treated with λ Phosphatase (PPase) for 30 minutes and analyzed by western blotting using specific antibodies for pFMRP, FMRP, pIRE1, IRE1 and β-Actin. pFMRP/FMRP fold induction is depicted above the blots (n=6). • 1D. […] Protein lysates were analyzed by western blotting using specific antibodies for pFMRP, FMRP, pIRE1, IRE1 and β-Actin. pFMRP/FMRP-fold induction is depicted above the blots (n=5). • 1E. […] Protein lysates were analyzed by western blotting using specific antibodies for pFMRP, FMRP, pIRE1, IRE1 and β-Actin. pFMRP/FMRP fold induction is depicted above the blots (n=4). • 1F. […]

SMILES	atherosclerotic plaque size (atherosclerotic plaque)	hyperlipidemia-induced m-IL-1β and m-IL-18 production (atherosclerotic plaque)	lipid-induced inflammasome activation [1]	secretion of mature interleukin-1β (m-IL-1β) and m-IL-18 [1]	FMRP phosphorylation (S500) [2]	IRE1 autophosphorylation (S724) [2]	levels of FMRP protein [2]	levels of Fmr1 mRNA [2]	phosphorylation of FMRP (HEK293T cells)	phosphorylation of IRE1 (HEK293T cells)
O=S(=O)(N=Cc1c(O)ccc2ccccc12)c1cccs1 [STF-083010]	reducing	reducing	prevented	prevented						
Cc1cc(=O)oc2c(C=O)c(O)ccc12 [4μ8C]	reducing	reducing	prevented	prevented						
C/C=C(/C)C(=O)O[C@H]1C(C)=C2[C@H]([C@@H]1OC(=O)CCCCCCC)[C@@](C)(OC(C)=O)C[C@H](OC(=O)CCC)[C@@]1(O)[C@H]2OC(=O)[C@@]1(C)O [TG, thapsigargin]					significantly induced	significantly induced	did not affect	did not affect	induced	induced
